Results as given in paper PMC5764337 (PLoS ONE, 2018).
pIC50: −log10 of the molar value.

Key:
A/PR8-WT virus NA = A/PR8-WT virus NA (Influenza A virus (H3N2), UniProt A0A193ACB1); format: biochemical
B/BR/60/08 virus NA = B/BR/60/08 virus NA (Influenza B virus, UniProt C0LT34); format: biochemical; settings: read-out: NA enzyme inhibition assay (mean IC50 ± SD)

For `CCC(CC)[C@H](NC(C)=O)[C@@H]1[C@H](O)[C@@H](C(=O)O)C[C@H]1N=C(N)N` [Peramivir, peramivir], the “fold increase in IC50 over A/PR8-WT” value (A/PR8-WT virus NA) was 0.1 ± 0.02 (1) fold, the pIC50 (A/PR8-WT virus NA; read-out: NA enzyme inhibition assay (mean IC50 ± SD)) was 10.00 and the pIC50 (B/BR/60/08 virus NA) was 9.30.
